Reference: patent US20240190890A1, “MK2 INHIBITORS AND USES THEREOF” (Bristol-Myers Squibb Company, priority 2022, published 2024)

Each compound was assayed against p38a activated, mitogen-activated protein kinase-activated protein kinase 2 (MAPKAP-K2 or MK2) enzyme (Homo sapiens (Human), UniProt P49137) (assay: MK2 Omnia continuous-read kinase assay for compound potency). Details: [MK-2]=0.4 nM, [ATP]=10 μM, [ST3-Sox]=10 μM; room temperature.
Assay type: biochemical
From the text: Mitogen-Activated Protein Kinase-Activated Protein Kinase 2 Omnia® Assay for Compound Potency Assessment:
The protocol below describes a continuous-read kinase assay optimized to measure potency of compounds against p38a activated, mitogen-activated protein kinase-activated protein kinase 2 (MAPKAP-K2 or MK2) enzyme. Further details of this assay are described by Life Technologies, Carlsbad, CA on their website at the following URL: http://tools.lifetechnologies.com/content/sfs/manuals/omnia_kinase_assay_man.pdf. • [Reagent] used: • [MK-2]=0.4 nM, • [ATP]=10 μM and • [ST3-Sox]=10 μM (ATP^appKM=10 μM)
Briefly, 10× stock solutions of MK2 (PV3317, from Life Technologies), 1.13X ATP (AS001A), and Sox conjugated peptide substrate, S/T3-Sox, (KZN1031) were prepared in 1× kinase reaction buffer consisting of 20 mM Tris, pH 7.5, 5 mM MgCl2, 1 mM EGTA, 5 mM β-glycerophosphate, 5% glycerol (10× stock, KB001A) and 0.2 mM DTT (DS001A). Enzyme solution (5 μL) was added to each of DMSO ([…]) or serially diluted test compounds prepared in DMSO in a Corning (#3574) 384-well, white, non-binding surface microtiter plate (Corning, NY). Kinase reactions were started with the addition of 45 μL of the ATP-peptide substrate S/T3-Sox mix and monitored every 71 seconds for 120 minutes at λex360/λem485 in a Synergy H4 plate reader from BioTek (Winooski, VT) at room temperature.
Background signals from the no enzyme control wells were subtracted from all progress curves. The initial linear portions of the net progress curves were fit according to a linear equation to yield the slope and percentage of inhibition (% inhibition) at each compound concentration. The net progress curves obtained during the first two hours of reactions were also fit according to an ascending single-exponential equation (Eq. 1) to yield kobs values at each compound concentration. Plots of % Inhibition versus inhibitor concentrations were fit according to a dose-response equation (Eq. 2) to generate IC50 and Hill slope values while plots of kobs versus inhibitor concentration were fit according to Equation 3 (Eq. 3) to generate apparent kinact/K1 values using the GraphPad PRISM software (Version 6.00; GraphPad San Diego, CA).
where F is the fluorescence intensity from the plate reader, V0 is a constant reflecting the relationship between the instrument readout and product concentration, t is time, e is Euler's number, and kobs is the observed inactivation rate constant.
where % Inhibition is percentage of inhibition, IC50 is half maximal inhibitory concentration, [I] is the inhibitor concentration, and n is the Hill slope.
where kobs is the observed inactivation rate constant, kinact is the apparent inactivation rate constant, K1 is the apparent inhibition constant, and [I] is the inhibitor concentration. […] Potency results for the compounds tested are shown in Table 4 in the column entitled “MK2 IC50.”

Chain of p38a activated, mitogen-activated protein kinase-activated protein kinase 2 (MAPKAP-K2 or MK2) enzyme (P49137 whole entry): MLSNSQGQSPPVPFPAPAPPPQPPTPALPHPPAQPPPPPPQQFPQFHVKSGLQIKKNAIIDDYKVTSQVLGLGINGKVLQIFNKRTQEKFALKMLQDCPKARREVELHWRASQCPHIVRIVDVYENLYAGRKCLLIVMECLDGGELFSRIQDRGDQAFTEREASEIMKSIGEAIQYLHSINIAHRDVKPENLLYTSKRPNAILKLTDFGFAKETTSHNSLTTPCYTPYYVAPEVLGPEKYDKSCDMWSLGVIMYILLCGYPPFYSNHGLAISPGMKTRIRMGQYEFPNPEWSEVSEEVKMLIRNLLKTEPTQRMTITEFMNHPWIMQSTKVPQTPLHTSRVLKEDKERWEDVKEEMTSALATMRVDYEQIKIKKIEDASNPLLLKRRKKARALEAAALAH

Compound | IC50 [nM]
C=Cc1nc(C2CC2)n(-c2ccc3c(ccc4sc5c(c43)NC[C@@H](C)NC5=O)n2)n1 [Example I-248, (R)-3-(5-cyclopropyl-3-vinyl-1H-1,2,4-triazol-1-yl)-10-methyl-9,10,11,12-tetrahydro-8H-[1,4]diazepino[5′,6′:4,5]thieno[3,2-f]quinolin-8-one] | 303
C=Cc1cc(-c2ccc3c(ccc4sc5c(c43)NC[C@@H](C)NC5=O)n2)c(N(C)C)nn1 [Example I-129, (R)-3-(3-(dimethylamino)-6-vinylpyridazin-4-yl)-10-methyl-9,10,11,12-tetrahydro-8H-[1,4]diazepino[5′,6′:4,5]thieno[3,2-f]quinolin-8-one] | 106
C[C@@H]1CNc2c(sc3ccc4nc(-c5ccnc(/C=C/C(F)(F)F)c5)ccc4c23)C(=O)N1 [Example I-199, (R,E)-10-methyl-3-(2-(3,3,3-trifluoroprop-1-en-1-yl)pyridin-4-yl)-9,10,11,12-tetrahydro-8H-[1,4]diazepino[5′,6′:4,5]thieno[3,2-f]quinolin-8-one] | 636
C=Cc1nccc(-c2ccc3c(ccc4sc5c(c43)NC[C@@H](C)NC5=O)n2)c1C [Example I-219, (R)-10-methyl-3-(3-methyl-2-vinylpyridin-4-yl)-9,10,11,12-tetrahydro-8H-[1,4]diazepino[5′,6′:4,5]thieno[3,2-f]quinolin-8-one] | 142
C=Cc1cc(-c2ccc3c(ccc4sc5c(c43)NC[C@@H](C)NC5=O)n2)cc(N2CCC(F)(F)CC2)n1 [Example I-168, (R)-3-(2-(4,4-difluoropiperidin-1-yl)-6-vinylpyridin-4-yl)-10-methyl-9,10,11,12-tetrahydro-8H-[1,4]diazepino[5′,6′:4,5]thieno[3,2-f]quinolin-8-one] | 260
C#Cc1nccc(-c2ccc3c(ccc4sc5c(c43)NC[C@@H](C)NC5=O)n2)c1C [Example I-220, (R)-3-(2-ethynyl-3-methylpyridin-4-yl)-10-methyl-9,10,11,12-tetrahydro-8H-[1,4]diazepino[5′,6′:4,5]thieno[3,2-f]quinolin-8-one] | 177

Compounds with a lower IC50, results first:

IC50 [nM] | Compound
75 | C#Cc1cc(-c2ccc3c(ccc4sc5c(c43)NC[C@@H](C)NC5=O)n2)cc(Cl)n1 [Example I-73, (R)-3-(2-chloro-6-ethynylpyridin-4-yl)-10-methyl-9,10,11,12-tetrahydro-8H-[1,4]diazepino[5′,6′:4,5]thieno[3,2-f]quinolin-8-one]
6 | C=Cc1cc(-c2ccc3c(ccc4sc5c(c43)NC[C@@H](C)NC5=O)n2)cc(N2CC3(COC3)C2)n1 [Example I-238, (R)-3-(2-(2-oxa-6-azaspiro[3.3]heptan-6-yl)-6-vinylpyridin-4-yl)-10-methyl-9,10,11,12-tetrahydro-8H-[1,4]diazepino[5′,6′:4,5]thieno[3,2-f]quinolin-8-one]
19 | C=Cc1cc(-c2ccc3c(ccc4sc5c(c43)NC[C@@H](C)NC5=O)n2)c(NC)nn1 [Example I-128, (R)-10-methyl-3-(3-(methylamino)-6-vinylpyridazin-4-yl)-9,10,11,12-tetrahydro-8H-[1,4]diazepino[5′,6′:4,5]thieno[3,2-f]quinolin-8-one]
64 | C=Cc1cc(-c2ccc3c(ccc4sc5c(c43)NC[C@@H](C)NC5=O)n2)c(F)cn1 [Example I-70, (R)-3-(5-fluoro-2-vinylpyridin-4-yl)-10-methyl-9,10,11,12-tetrahydro-8H-[1,4]diazepino[5′,6′:4,5]thieno[3,2-f]quinolin-8-one]
39 | C#Cc1cc(-c2ccc3c(ccc4sc5c(c43)NC[C@@H](C)NC5=O)n2)c(F)cn1 [Example I-71, (R)-3-(2-ethynyl-5-fluoropyridin-4-yl)-10-methyl-9,10,11,12-tetrahydro-8H-[1,4]diazepino[5′,6′:4,5]thieno[3,2-f]quinolin-8-one]
9 | [2H]C([2H])([2H])c1cnc(C=C)cc1-c1ccc2c(ccc3sc4c(c32)NC[C@@H](C)NC4=O)n1 [Example I-142, (R)-10-methyl-3-(5-(methyl-d3)-2-vinylpyridin-4-yl)-9,10,11,12-tetrahydro-8H-[1,4]diazepino[5′,6′:4,5]thieno[3,2-f]quinolin-8-one]
